Reference: patent US20140066385A1, “METHOD FOR TREATING CANCER BY COMBINED USE OF DRUGS” (Astellas Pharma Inc., priority 2011, published 2014)

How the values were obtained:
[1] = system: human non-small cell lung cancer (Calu-6); assay: Example 3: dose dependency of FK330 in enhancing paclitaxel in Calu-6 tumor-bearing mice; type: in vivo, nude mice; settings: Day 59; for tumor volume at the end of the study: mean±SEM
Protocol: Preparation of the test substances and conditioning of the cells were carried out in the same manner as in Example 2.
(§1) Five-week old male nude mice (CAnN Cg-Foxn1nu/CrlCrlj(nu/nu)) were purchased from Charles River Laboratories Japan, Inc. (Japan, Kanagawa). The animals were raised under specific pathogen-free (SPF) conditions throughout the test period by feeding standard feedstuff and drinking water. The cultured cells were subcutaneously inoculated into the dorsal region of the nude mice at a concentration of 3×10^6 cells/0.1 mL/mouse. Nude mice which had the tumor volumes (major axis×[minor axis]^2×0.52) ranging from 123.3 mm^3 to 274.4 mm^3 were assigned by using SAS to minimize the fluctuation in the tumor volume between the groups and within the group.
The first day of administration was designated as Day 0, and observation was made until Day 59. The respective groups (n=5) were treated as follows. FK330 was orally gavaged in an amount of 5 mL/kg, and paclitaxel was administered intravenously through the tail vein in an amount of 10 mL/kg. Paclitaxel was continuously administered from Day 0 to Day 5, and then was withdrawn for 21 days. This was defined as one cycle, and administration was carried out up to two cycles.
Paclitaxel single administration group: Paclitaxel 10 mg/kg/day (continuously administered for six days from Day 0 in Cycle 1, and continuously administered for 6 days from Day 27 in Cycle 2)
FK330 30 mg/kg bid (60 mg/kg/day)+paclitaxel 10 mg/kg/day (continuously administered for 6 days from Day 0 in Cycle 1, and continuously administered for 6 days from Day 27 in Cycle 2)
FK330 60 mg/kg bid (120 mg/kg/day)+paclitaxel 10 mg/kg/day (continuously administered for 6 days from Day 0 in Cycle 1, and continuously administered for 6 days from Day 27 in Cycle 2)
FK330 100 mg/kg bid (200 mg/kg/day)+paclitaxel 10 mg/kg/day (continuously administered for 6 days from Day 0 in Cycle 1, and continuously administered for 6 days from Day 27 in Cycle 2)
FK330 was orally gavaged (5 mL/kg) twice a day at an interval of 6 to 8 hours. Paclitaxel was administered by intravenous bolus injection (10 mL/kg) through the tail vein 2 to 4 hours after the administration of FK330.
(§2) Every 2 to 4 days, the body weight and the tumor diameters, determined by using a digital caliper, were measured. The tumor volume was calculated from the calculation formula for ellipsoid volume of (major axis×[minor axis]^2×0.52).

[2] = system: human gastric cancer (AZ-521); assay: Example 5: FK330 with paclitaxel in AZ-521 tumor-bearing mice; type: in vivo, nude mice; settings: for tumor volume on the last day of experiment: AZ-521, Day 46, mean±SEM
Protocol: Preparation of the test substances was carried out in the same manner as in Example 2.
Human gastric cancer-derived NCI-N87 (CRL-5822) was obtained from American Type Culture Collection (VA, USA), MKN-28 (JCRB0253) was obtained from Health Science Research Resources Bank (HSRRB), and AZ-521 (RCB2087) was obtained from Riken BRC. NCI-N87 and MKN-28 cells were cultured under the conditions of 37° C. and 5% CO2 by using RPMI1640 medium containing 10% heat-inactivated fetal bovine serum (FBS), and AZ-521 cells were cultured under the conditions of 37° C. and 5% CO2 by using DMEM medium containing 10% heat-inactivated FBS. The cells were harvested with trypsin and were suspended in PBS at 6×10^7 cells/mL, and the suspension was mixed with an equal amount of Matrigel (trade name) Basement Membrane Matrix (manufactured by Becton Dickinson Co., Bedford, Mass., USA).
as §1, with “Nude mice which had the tumor volumes (major axis×[minor axis]^2×0.52) ranging from 123.3 mm^3 to 274.4 mm^3 were assigned by using SAS to minimize the fluctuation in the tumor volume between the groups and within the group.” left out
as §2
The results are expressed as the mean value (Mean)±standard error (SEM). Using the actual measured values of the tumor volume at each measurement time point, an unpaired statistical test (Student's t-test) of the difference between two groups was carried out between a single administration group and a combined use group. […]

SMILES | tumor volume reduction ratio compared with the paclitaxel-only group ([1]; FK330 30 mg/kg bid + paclitaxel 10 mg/kg/day) [%] | tumor volume at the end of the study ([1]; FK330 30 mg/kg bid combined use group with paclitaxel 10 mg/kg/day) [mm^3] | tumor volume reduction ratio compared with the paclitaxel-only group ([1]; FK330 60 mg/kg bid + paclitaxel 10 mg/kg/day) [%] | tumor volume at the end of the study ([1]; FK330 60 mg/kg bid combined use group with paclitaxel 10 mg/kg/day) [mm^3] | tumor volume reduction ratio compared with the paclitaxel-only group ([1]; FK330 100 mg/kg bid + paclitaxel 10 mg/kg/day) [%] | tumor volume at the end of the study ([1]; FK330 100 mg/kg bid combined use group with paclitaxel 10 mg/kg/day) [mm^3] | tumor volume on the last day of experiment ([2]; combined use group paclitaxel 10 mg/kg/day + FK330 100 mg/kg bid) [mm^3] | tumor volume decrease compared with the paclitaxel-only group ([2]; AZ-521, last day, FK330 100 mg/kg bid + paclitaxel, P<0.01) [%] | tumor volume at the end of the study ([1]; paclitaxel-only group, 10 mg/kg/day i.v., two cycles) [mm^3] | tumor volume on the last day of experiment ([2]; paclitaxel-only group 10 mg/kg/day i.v., two cycles) [mm^3]
O=C(/C=C/c1ccc(Cl)cc1)N[C@@H](Cc1ccccn1)C(=O)NCC(=O)N1CCC(Oc2cc(C(F)(F)F)ncn2)CC1 [FK330, N^2-[(2E)-3-(4-chlorophenyl)-2-propenoyl]-N-[2-oxo-2-(4-{[6-(trifluoromethyl)pyrimidin-4-yl]oxy}piperidin-1-yl)ethyl]-3-pyridin-2-yl-L-alaninamide] | 41.7 | 955.9±231.0 | 56.9 | 706.2±256.1 | 81.8 | 297.9±101.4 | 795.0±223.3 | 75.8 |  | 
CC(=O)O[C@H]1C(=O)[C@@]2(C)[C@H]([C@H](OC(=O)c3ccccc3)[C@]3(O)C[C@H](OC(=O)[C@H](O)[C@@H](NC(=O)c4ccccc4)c4ccccc4)C(C)=C1C3(C)C)[C@]1(OC(C)=O)CO[C@@H]1C[C@@H]2O [paclitaxel, reference compound] |  |  |  |  |  |  |  |  | 1640.1±902.8 | 3285.4±359.4
